Usually melting point stands for the temperature of the solid-liquid transition.

Molecules are shown by their SMILES.

Data on 88 molecules can be found in a melting point compilation (Tetko et al.; mined from patent text by program, amines drawn as free bases though some values may be those of a salt).

`CC12CCC(=O)C=C1CCC1C2CCC2(C)C(OC(=O)CCl)CCC12` (stereo not drawn) registered a melting point of 125 to 126 °C.
Consider `N=C(N)NCCCc1nccs1`, for which the melting point is 160 to 163 °C.
Next, `CC1(C)Cc2c(N)c(Cl)cc(C(=O)NCCC34CCCN3CCC4)c2O1`: 189 to 191 °C; `COc1cc2c(c(C(C)(C)C)c1)OC(=O)C2`: 117 to 118 °C.
Next, `C/C(=C(\C#N)C(N)=S)N1CCCN(c2ccccc2C)CC1`: 99 to 100 °C; `C=CCc1cc(Cl)c2ccccc2c1O`: 55 to 57 °C; `O=C1OC(=O)C2CC(=C(F)F)CC12` (stereo not drawn): 140 to 145 °C.
The result for `CN(C)Cc1ccc(-c2cc3ncc(C#N)c(Cl)c3s2)cc1` reads 166 to 168 °C; that for `CS(=O)(=O)OCCNc1ccc(C(F)(F)F)cc1[N+](=O)[O-]`, 68 to 70 °C.
`Cc1c(C)c2c(c(C)c1O)CCC(C)(COc1ccc(NC(=S)NC(c3ccccc3)c3ccccc3)cc1)O2` (stereo not drawn) had a melting point of 146 to 148 °C.
Next, `CC(C)(C)OC(=O)N1CCC(NCc2ccccc2N)CC1`: 79 to 81 °C; `CC(C)c1c(/C=C/I)c(-c2ccc(F)cc2)nc2ccccc12`: 145 to 147 °C; `CCCCc1ccc(C(=O)Oc2ccc(C#N)c(F)c2)nc1`: 45.1 to 46.1 °C.
The result for `CCCc1nc(C(N)=O)c2n1-c1ccc(Cl)cc1C(c1ccccc1Cl)=NC2` reads 298 to 300 °C; that for `O=C(Cl)COc1ccc(Cl)cc1Cl`, 44 to 45 °C.
`Cc1ccccc1C(=S)NC(=O)Nc1ccc(Cl)cc1` gave a melting point of 211 °C.
Next, `O=C(O)CC1=CC2(Cc3ccc(Br)cc3)C(=O)N(c3cc(Cl)cc(Cl)c3)C(=O)N2C1` (stereo not drawn): 102 °C.
In turn, `CS(=O)(=O)c1ccc(-n2nc(CNC(=O)Nc3ccc(C(F)(F)F)cc3)cc2-c2ccccc2)cc1` yielded a melting point of 129 to 132 °C.
Next, `c1ccc(N2CCN(CCCc3cccnc3)CC2)nc1`: 51 to 52 °C; `O=C(O)c1c(-c2cccc(OCC3CC3)c2)c2ccccc2n1Cc1ccc(F)cc1`: 200 to 202 °C; `CCCc1nc2c(N)nc(C)c(C)c2n1CCCCS(N)(=O)=O`: 167 to 169 °C.
For the molecule `CCc1nc2c(=O)[nH]c(=O)n(C)c2nc1CC`, the melting point lay within 218 to 222 °C.
`CC(O)C1(c2cccc(Cl)c2)CCCN(C)CC1` (stereo not drawn) came in with a melting point of 123 to 124 °C.
The result for `Nc1c(Cl)cc(C(O)CNCCCCCCOCCCc2cncc(CC(=O)O)c2)cc1Cl` (stereo not drawn) reads 191 to 192 °C; that for `N#CCCNC(=O)c1cc(F)cc(-c2cccc3cc(Cc4ccc(F)c(Cl)c4)sc23)c1`, 127 to 128 °C.
As for `O=C(O)c1cc(NC(C(=O)O)c2ccccc2Cl)c(Cl)cc1Cl` (stereo not drawn), the melting point stood at 210 °C.
Next, `CC(=NNc1ccc(C(F)(F)F)cc1)C(=O)NCc1ccc(Cl)cc1`: 124 to 125 °C; `CCCCNC(=O)c1cn2nc(N3CCN(C(=O)c4ccccc4C(F)(F)F)CC3)ccc2n1`: 187 to 189 °C; `Cc1cc(C)nc(NC(=O)C(N)CC(C)C)c1` (stereo not drawn): 78 °C.
The result for `Cc1c(F)cccc1Cc1c(-c2ccccc2)c2cc(C=O)cnn2c1C(=O)N1CCN(C(=O)OC(C)(C)C)CC1` reads 208 to 209 °C; that for `CSCC[C@@H](NC(=O)OC(C)(C)C)C(=O)Nc1ccc(N2C[C@H](CNC(=O)c3ccc(Cl)s3)OC2=O)cc1`, 183 °C.
The molecule `Cn1nc(-c2cc(Oc3ccccc3)c(C#N)cc2F)c(Cl)c1C(F)(F)F` had a melting point of 123 °C.
Next, `CC(O)C(=O)Nc1ccc(C2=NNC(=O)NC2C)cc1` (stereo not drawn): 217 to 225 °C; `CN(C)c1c(C=O)n(C)c(=O)n1-c1cccc(C(F)(F)F)c1`: 87 to 90 °C; `Oc1ccc2nc(Nc3ccccc3)cnc2c1`: 211 to 213 °C.
The result for `CCOCc1nc2c(N)nc3cc(OCCCCCCNC(=O)CCS)ccc3c2n1CC(C)(C)NS(C)(=O)=O` reads 152 to 157 °C; that for `CNC1CC=C(c2c[nH]c3ccc(NC(=N)c4cccs4)cc23)CC1` (stereo not drawn), 167 to 169 °C.
Next, `CCCCCC(O)CCCOC(=O)c1ccccc1` (stereo not drawn): 90 to 93 °C; `CC(C)(C)OC(=O)Nc1ccc(Nc2n[nH]c(N)c2C#N)cc1`: 166 to 168 °C.
`O=C(O)Cc1ccc2c(c1)sc1ccc(Cl)cc12` registered a melting point of 220 to 221 °C.
Next, `CS(=O)(=O)c1ccc(C=Cc2ccc(OCCO)cc2)cc1`: 224 to 226 °C.
The result for `COc1ccc(-c2sc3c(c2CBr)c(=O)c(-c2cnco2)cn3Cc2ccccc2F)cc1` reads 234 to 236 °C; that for `CC(N)CC(=O)Nc1c(OCC(F)(F)F)cccc1-c1ccccn1` (stereo not drawn), 135 to 137 °C; that for `CC(C)CN(Cc1nnc(-c2ncn3c2CN(C)C(=O)c2ccccc2-3)o1)CC(C)C`, 138 to 140 °C.
Next, `O=c1cc2c(nn1-c1ccc(Cl)cc1)-c1ccccc1S(=O)(=O)CC2`: over 310 °C.
Take `O=C(N[C@H]1CC[C@H](CCN2CCC(c3cccc4c3CCO4)CC2)CC1)c1ccc(N2CCOCC2)nc1`: the melting point worked out at 228 °C.
The result for `COCOc1ccc(C=CC(C)=O)cc1OC` reads 73 to 75 °C.
The result for `NS(=O)(=O)c1cccc(-c2cc(-c3nc(-c4cccc(C(F)(F)F)c4)cc(C(F)(F)F)n3)ccn2)c1` reads 244 °C.
Next, `CCCCc1nc2c(N)nc3ccccc3c2n1CCCCN1CCCS1(=O)=O`: 173 to 176 °C; `Cc1cc(C(F)(F)F)nn1CC(=O)N1CCC(C(N)=S)CC1`: 185 to 186 °C; `COC(=O)c1ccc(Cn2cnc3c(Cl)nc(N)nc32)cc1`: 150 to 155 °C.
Consider `O=C(CCc1cccnc1)NCCCCC1CCN(C2c3ccccc3COc3ccccc32)CC1` (stereo not drawn), for which the melting point lay in the range of 110 to 112 °C.
The result for `Cc1c(Cc2cccc(C(F)(F)F)c2)sc2c(-c3cc(F)cc(C(N)=O)c3)cccc12` reads 146 to 147 °C; that for `COc1cc(OC)c(OC)cc1C=CC=O`, 140 °C.
Next, `CN(c1cc(F)cc2cc(C3=NCCS3)[nH]c12)S(=O)(=O)c1cccs1`: 188 to 189 °C.
For `O=C(c1ccccc1)c1ccc(N2CCCC2=O)cc1`, the melting point was in the range of 156 to 158 °C.
The result for `N#CN=C(Nc1cccnc1)NC(NC(=O)c1ccc(Cl)cc1)C12CC3CC(CC(C3)C1)C2` (stereo not drawn) reads 209 to 210 °C; that for `O=S(=O)(Nc1cccc2cc(C3=NCCS3)[nH]c12)c1cccs1`, 189 to 190 °C; that for `CC(C)=CCOc1ccc2c(C)cc(=O)oc2c1C(=O)C=Cc1cccnc1`, 156 to 157 °C.
The result for `CN(C)S(=O)(=O)c1cccc(OC(F)F)c1C#N` reads 100 to 102 °C.
The result for `Cc1nccn1-c1ccc(COc2cccc(C3(C(N)=O)CCOCC3)c2)cc1` reads 183 to 186 °C; that for `CC(=Cc1ccc2[nH]ccc2c1)C(=O)O`, 207 to 209 °C.
As for `O=Cc1ccc(OCc2ccsc2)cc1OC(C(=O)O)c1ccccc1` (racemic), the melting point was 172 to 174 °C.
Next, `COc1ccc(N2C(=O)[C@@H](OC(C)=O)[C@H]2c2ccccc2)cc1` (relative stereo): 163 °C; `CC(C)c1ccc2c(c1)OC1(O)c3ccccc3C(=O)C21N` (stereo not drawn): 151 to 152 °C.
Molecule `NS(=O)(=O)c1cc(C(=O)CBr)ccc1F` gave a melting point of 125 °C.
The result for `COc1cccc(NC(=O)N[C@H]2C[C@@](N)(C(=O)O)[C@@H]3[C@@H](C(=O)O)[C@@H]32)c1` (relative stereo) reads over 250 °C.
Next, `O=C1CN(SC(Cl)(Cl)Cl)C(=O)N1SC(Cl)(Cl)Cl`: 142 °C; `COC(=O)c1c(N)ncn1C1c2ccccc2CCC1(C)C` (stereo not drawn): 193 to 195 °C; `O=C(O)CCOc1ccc(CCNC(=O)C2Cc3ccccc3N2S(=O)(=O)c2ccc(-c3cccc(C(F)(F)F)c3)cc2)cc1` (stereo not drawn): 70 °C.
The result for `CN(C(=O)COc1cc(-c2ccccc2)nc2ccccc12)C(C)(C)C` reads 90 °C; that for `CC1C(O)C(C(C)(C)O)C(=O)N1c1ccc(C#N)c(Cl)c1` (stereo not drawn), 131 to 132 °C.
As to `O=c1[nH]cnc2sccc12`, the melting point is 256 to 258 °C.
The molecule `CC(C)c1c(/C=C/[C@@H]2C[C@@H](O)CC(=O)O2)n(-c2ccc(F)cc2)c(=O)c2ccccc12` registered a melting point of 207 to 209 °C.
Next, `Clc1ccc(NC2=NCCN2)c(Cl)c1`: 138 to 139 °C.
Molecule `C=C(CCC(C)C1CCC2(C)C3CCC4C(C)(C)C(O)CCC45CC35CCC12C)C(C)C` (stereo not drawn) gave a melting point of 123 to 124 °C.
Next, `CSC(Oc1cc2cc(Br)cnc2cc1F)C(=O)NC(C)(C)C` (stereo not drawn): 144 to 145 °C.
Next, `O=c1ccn(CC(O)CO)c(Cc2ccccc2)c1O` (stereo not drawn): 185 to 186 °C; `O=C(O)Cc1ccc(NC(=O)C(Cc2ccccc2)NS(=O)(=O)c2ccc(Br)cc2)cc1` (racemic): 184 to 185 °C.
Next, `COc1ccc(CC(=O)NC(NC(=NC#N)Nc2cccc3ncccc23)C(C)(C)C)cc1OC` (stereo not drawn): 128 to 129 °C.
In turn, `Cc1cccc2c1CCCCC2=O` registered a melting point of 54 to 55 °C.
Next, `Cc1c(C)c2c(c(C)c1O)C(CBr)C(C)(C)O2` (stereo not drawn): 79 to 80 °C; `CNC(=O)NC(=O)C(CC1CCC(=O)C1)c1ccc(Cl)c(Cl)c1` (stereo not drawn): 70 to 74 °C; `CC(C(=O)O)=C1CCC2C3CCC4=CC(=O)CCC4(C)C3CCC12C` (stereo not drawn): 266 to 270 °C.
Regarding `CC(C)c1nc(CCCOCc2ccccc2)[nH]c1Sc1cc(Cl)cc(Cl)c1`, the melting point lay within 118 to 119 °C.
The result for `Cn1ncc2c(c1=O)SCCNC2C(=O)c1ccccc1` (stereo not drawn) reads 210 °C.
The result for `COc1cc2ccccc2cc1NC(=O)N1CCN(c2cc(C)cc(C)c2)CC1` reads 105 to 107 °C; that for `COc1cccc2c1C(=O)c1c(OC)cc(C(=O)N(C)OCc3ccccc3)cc1C2=O`, 170 to 171 °C.
